Measured values taken from US5998366A, “Method for ameliorating glutamic acid decarboxylase associated autoimmune disorders” (The Regents of the University of California, priority 1997, dated 1999).

Key:
[1] = test system: IDDM autoantibodies in sera of human patients; test: Immunoprecipitation of 35S-labeled GAD65 segments by IDDM patient sera; type: binding; settings: 22 IDDM patient sera, 30 μl serum
Description: Portions of human GAD65 cDNA were amplified by the polymerase chain reaction (PCR; Saiki, et al., Science, 239:487, 1988) to produce DNA segments encoding three polypeptide segments: amino acid residues 1-224 (segment A); 224-398 (segment B); and 398-585 (segment C). Each construct also contained a T7 promoter, a consensus sequence for the initiation of translation and an initiating methionine codon (Korak, M., J. Cell Biol., 108:229, 1989). Each PCR product was then trascribed in vitro with T7 RNA polymerase and translated in vitro in a rabbit reticulocyte cell-free system in the presence of ^35 S-methionine, using conditions recommended by the supplier (Amersham Corp., Arlington Heights, Ill.). Each test serum (30 μl) was incubated with the resulting ^35 S labeled-polypeptides. The bound peptides were isolated with PAS and analyzed by SDS-PAGE in 12% polyaacrylamide and autoradiography.

[2] = biological target: T1, 64 kD pancreatic polypeptide (Homo sapiens, UniProt Q05329); test: Prior absorption of patient sera, then immunoprecipitation of the 64 kD islet cell polypeptide; type: binding
T1 construct: antibodies which recognize specific polypeptides produced in human pancreatic islet cells; endogenous in cells; host or cells: human pancreatic islet cells from cadaveric pancreas, metabolically labelled with 35S-methionine
Description: 4. Human Islet Cells. Human pancreatic islets were isolated from cadaveric pancreases and maintained in vitro as previously described (Ricordi, et al., Diabetes, 37:413-420, 1988). The islet cells were metabolically labeled with ^35 S methionine (Amersham, Arlington Heights, Ill.) in vitro (95% air/5%CO2).
5. Islet Cell Extractions and Immunoprecipitations. Islet cells were extracted as previously described by Atkinson, et al. (Lancet, 335:1357-1360, 1990) with the following modifications. […] Following another incubation with protein A Sepharose CL-4B (1 h, 4° C.), the complexes were then washed 5 times with 50 mM Tris HCL (pH 7.4) with 0.1% SDS, 1.0% Triton X-114, and 2 mM EDTA, and then washed again one time in double distilled water. The protein A Sepharose CL-4B was then boiled in Laemmli sample buffer (Laemmli, Nature, 227:680-685, 1970), and the samples were subjected to SDS-PAGE and fluororadiography (Kodak, X-omat AR5) using Enhance (New England Nuclear). Alternatively, the autoradiographs were analyzed by a BETAGEN (Boston, Mass.) analyzer. Both 64 KA positive and negative sera were used in each assay, to serve as interassay controls. All fluororadiographs were analyzed and rated as positive or negative after comparison with the known interassay controls.

spleen cells of NOD mice = test: Proliferative recall response of spleen cells to β-cell antigens, by age; type: cell-based; settings: female NOD mice, 10 μg/ml antigen or 7 μM peptide, 72 h culture (FIG. 8)
Procedure: NOD (Taconic farms) and BALB/c mice (Jackson Laboratories) were kept under specific pathogen free conditions. The mice were sacrificed at the ages indicated and the spleen cells were tested directly ex vivo for their proliferative recall response to antigen. Single cell suspensions of spleen cells were plated at 1×10^6 cells per well in 96 well microtiter plates in 200 μl serum free HL-1 medium (Ventrex) that was supplemented with 2 mM glutamine with or without 10 μg/ml antigen (or 7 μM peptide) in triplicate cultures. During the last 16 h of the 72 h culture period, 1 μCi[^3 H]-thymidine was added per well. Incorporation of label was measured by liquid scintillation counting.
Both human GAD65 (Bu, et al., Proc. Natl. Acad. Sci., 89:2115-2119, 1992) and E. coli β-gal (control) were purified from recombinant bacteria on the basis of a hexahistidine tag which allows their rapid affinity purification by metal affinity chromatography (Hochuli, et al., Bio/Technology, 6:1321-1325, 1988). Bovine CPH was the generous gift of L. Fricker (Albert Einstein Col. Med.) and human insulin was purchased from Eli Lilly.

[3] = test system: spleen cells of treated female NOD mice; test: Proliferative splenic T-cell responses to antigens after tolerance induction; type: in vivo; settings: Table 8A: i.v. at 3 weeks, tested at 12 weeks
female NOD mice [4] = test: GAD immunization of 8 week old NOD mice, onset of IDDM; type: in vivo; settings: again every 6 weeks
Description: An IPTG inducible T7 expression vector was used to express both human GAD65 and E. coli b galactosidase (β-gal). In IPTG induced recombinant E. coli, GAD and β-gal constitute about 10-20% of the total bacterial protein. However, almost all of the GAD was in inclusion bodies, which could be isolated and extensively washed to obtain material that is about 80% GAD. We then did affinity purifications of GAD and β-gal on the basis of a hexa-histidine "tag" which was attached to GAD during the subcloning process. These extra histidine residues allow the rapid affinity purification (Novagen) of GAD by metal affinity chromatography (Hochuli, et al., Bio Technology, 6:1321-1325, 1988). The inclusion body material is solubilized in 6M guanidine hydrochloride (GHCL), 10 mm β-mercaptoethanol and 1% triton X-100. After binding to the column, the column was extensively washed with GHCL and 8M urea in phosphate buffers. Only the central peak GAD fraction was utilized for subsequent studies. Human GAD65 shares 96% amino acid sequence identity with murine GAD65, with most of the amino acid differences being conservative substitutions.
Breeder mice were purchased from Taconic Farms and housed under specific pathogen-free conditions. Only female NOD mice were used in this study. The average age of IDDM onset in unrelated females in the colony was 22 weeks. Insulitis is generally observed beginning at 4 weeks of age. T cell responses to GAD, HSP, CPH were found by 6 weeks in age. The incidence of IDDM in female mice is 70-90% by one year of age.
At 8 weeks of age, 25 ug GAD or control β-gal. was injected intraperftoneally (ip) in 100 ul of incomplete Freunds adjuvant (IFA). Because there may be a requirement for continual antigen presentation (Ramsdell, et al., Science, 257:1130-1133, 1992) mice were treated again every 6 weeks. Urine glucose levels were monitored twice weekly. After observing above normal glucose in urea, blood glucose levels were monitored twice weekly. Two consecutive blood glucose level readings of […] was considered as IDDM onset, after which the mice were sacrificed and spleen cells were tested as described above in Example 6 for evidence of spleen cell proliferation.

female NOD mice [5] = test: Insulitis score after tolerance induction; type: in vivo; settings: Table 8A: i.v. injection at 3 weeks of age in PBS, examined at 12 weeks; scale 0-4; mean ± SE
Procedure: 1. In these experiments female NOD mice were intravenously injected at 3 weeks of age with 50 μg GAD, μ-galactosidase, mycobacterial hsp65 (m-hsp) or 0.1 μg of the immunodominant hsp peptide (hsp-p), in PBS. At 12 weeks of age, mice were examined for insulitis and autoantigen reactive T-cells. At this age both indications are established in untreated NOD mice. Pancreatic tissue sections were stained by immunoperoxidase techniques for insulin and were counterstained with hematoxylin. Insulitis was scored in a blinded manner by examining 54 to 87 islets on 5 interrupted tissue sections from each pancreas. Proliferative splenic T-cell responses induced by various antigens were performed as described above in Example 4. Data in Table 8 are expressed as the average [^3 H]-thymidine label (cpm) incorporated in triplicate cultures.
2. In a second set of experiments neonatal female NOD mice were injected intraperitoneally IFA with peptide 11, a mixture of peptides 34 and 35 plus IFA, or with IFA alone and at 12 weeks of age the mice were examined for insulitis and autoantigen reactive T-cells as in Example 6.1. Proliferative splenic T-cell responses induced by the various antigens were performed as in Example 4, and data in Table 8B are expressed as the average [^3 H]-thymidine label (cpm) incorporated in triplicate cultures.
3. In a third set of experiments female NOD mice were intravenously injected at three weeks of age with peptide 11 (control), a mixture of peptides 34 and 35 plus IFA, or with HEL peptides and at 12 weeks of age the mice were examined for insulitis and autoantigen reactive T-cells as in Example 6.1. Proliferative splenic T-cell responses induced by the various antigens were performed as in Example 4, and data in Table 8C are expressed as the average [^3 H]-thymidine label (cpm) incorporated in triplicate cultures.

T1 sequence (Q05329 whole entry): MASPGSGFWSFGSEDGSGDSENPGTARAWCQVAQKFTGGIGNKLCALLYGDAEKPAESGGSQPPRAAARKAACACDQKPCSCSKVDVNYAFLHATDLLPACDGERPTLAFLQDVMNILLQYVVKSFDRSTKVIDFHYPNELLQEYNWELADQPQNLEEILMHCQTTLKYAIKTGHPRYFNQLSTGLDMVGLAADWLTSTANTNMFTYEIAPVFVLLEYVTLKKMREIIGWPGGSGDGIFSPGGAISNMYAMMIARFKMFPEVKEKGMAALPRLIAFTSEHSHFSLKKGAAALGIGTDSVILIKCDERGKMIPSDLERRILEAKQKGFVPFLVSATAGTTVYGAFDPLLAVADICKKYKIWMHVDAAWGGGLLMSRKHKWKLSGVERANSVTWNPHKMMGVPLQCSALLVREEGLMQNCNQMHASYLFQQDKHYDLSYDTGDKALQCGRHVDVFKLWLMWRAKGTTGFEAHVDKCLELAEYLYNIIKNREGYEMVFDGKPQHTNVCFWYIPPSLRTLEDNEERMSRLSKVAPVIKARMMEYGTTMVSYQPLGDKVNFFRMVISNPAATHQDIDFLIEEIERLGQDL

Molecule: segment B: human GAD65 amino acid residues 224-398, translated in vitro, 35S labeled
- patients with antibodies reactive with the segment [1]: 41%

Molecule: bacterially produced GAD65: GAD65 expressed in bacteria, used to absorb patient sera
- ability of the absorbed sera to recognize the 64 kD pancreatic polypeptide [2]: abolished

Molecule: CPH: bovine carboxypeptidase H, gift of L. Fricker [reference compound]
- age at which the proliferative T-cell response to the antigen appeared (spleen cells of NOD mice): ≤ 8 weeks

Molecule: β-Gal.: E. coli β-galactosidase (control antigen) purified from recombinant bacteria by hexahistidine tag [reference compound]
- Spleen Cell Proliferation (SI ± SEM) CPH ([3]; recall antigen CPH): 11.5 ± 0.9 SI
- Spleen Cell Proliferation (SI ± SEM) GAD ([3]; recall antigen GAD): 15.4 ± 1.8 SI
- Spleen Cell Proliferation (SI ± SEM) GAD Peptides #17 ([3]; recall antigen GAD peptide #17): 5.1 ± 0.6 SI
- Spleen Cell Proliferation (SI ± SEM) GAD Peptides #34 ([3]; recall antigen GAD peptide #34): 5.1 ± 0.6 SI
- Spleen Cell Proliferation (SI ± SEM) GAD Peptides #35 ([3]; recall antigen GAD peptide #35): 4.0 ± 0.2 SI
- Spleen Cell Proliferation (SI ± SEM) hsp Peptide ([3]; recall antigen hsp peptide): 6.6 ± 0.5 SI
- Spleen Cell Proliferation (SI ± SEM) β-Gal ([3]; recall antigen β-Gal): 1.1 ± 0.1 SI
- mice that developed IDDM by 27 weeks in age (female NOD mice [4]; 25 ug ip in IFA at 8 weeks of age): 6/10
- treated mice remaining disease free at 52 weeks of age (female NOD mice [4]; 25 ug ip in IFA at 8 weeks, 10 mice per group): 2
- Insulitis Score (female NOD mice [5]): 2.6 ± 0.6

Molecule: insulin: human insulin purchased from Eli Lilly [reference compound]
- age at which the proliferative T-cell response to the antigen appeared (spleen cells of NOD mice): 12 weeks

B1: segment C: human GAD65 amino acid residues 398-585, translated in vitro, 35S labeled (protein, UniProt Q05329 398-585, looked up, fragment)
chain: MGVPLQCSALLVREEGLMQNCNQMHASYLFQQDKHYDLSYDTGDKALQCGRHVDVFKLWLMWRAKGTTGFEAHVDKCLELAEYLYNIIKNREGYEMVFDGKPQHTNVCFWYIPPSLRTLEDNEERMSRLSKVAPVIKARMMEYGTTMVSYQPLGDKVNFFRMVISNPAATHQDIDFLIEEIERLGQDL
modifications: 35S label
notes: human GAD65 amino acid residues 398-585, translated in vitro, 35S labeled
- patients with antibodies reactive with the segment [1]: 27%

B2: segment A: human GAD65 amino acid residues 1-224, translated in vitro, 35S labeled (protein, UniProt Q05329 1-224, looked up, fragment)
chain: MASPGSGFWSFGSEDGSGDSENPGTARAWCQVAQKFTGGIGNKLCALLYGDAEKPAESGGSQPPRAAARKAACACDQKPCSCSKVDVNYAFLHATDLLPACDGERPTLAFLQDVMNILLQYVVKSFDRSTKVIDFHYPNELLQEYNWELADQPQNLEEILMHCQTTLKYAIKTGHPRYFNQLSTGLDMVGLAADWLTSTANTNMFTYEIAPVFVLLEYVTLKKM
modifications: 35S label
notes: human GAD65 amino acid residues 1-224, translated in vitro, 35S labeled
- patients with antibodies reactive with the segment [1]: none
